Each structure is given as a SMILES string. pIC50: −log10 of the molar value.

The target of the first test is BTK, recombinant human catalytic domain (aa 393-659) (Homo sapiens (Human), UniProt Q06187). In words: In vitro BTK kinase activity measured by time-resolved fluorescence resonance energy transfer (trFRET). In kind it is biochemical. The conditions noted are these: read-out: Btk IC50.
Sequence of BTK, recombinant human catalytic domain (aa 393-659) (Q06187 393-659): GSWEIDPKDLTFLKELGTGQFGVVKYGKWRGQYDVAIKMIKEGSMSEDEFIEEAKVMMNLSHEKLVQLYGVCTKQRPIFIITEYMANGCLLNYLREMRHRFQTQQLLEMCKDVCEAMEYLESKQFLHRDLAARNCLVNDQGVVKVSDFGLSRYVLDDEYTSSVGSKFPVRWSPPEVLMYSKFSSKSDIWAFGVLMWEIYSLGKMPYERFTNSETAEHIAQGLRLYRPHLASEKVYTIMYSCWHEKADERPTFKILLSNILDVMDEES
Usually pIC50 stands for the IC50 on a negative log10 scale, so that one unit is a factor of ten. As for `C=CC(=O)N1CC(N(C)c2ccc(C(N)=O)c3[nH]c(-c4cnn(C)c4)cc23)C1` [E.9.14], the pIC50 is greater than 7.00.

`Cc1c(-c2ccc(C(N)=O)c3[nH]c(-c4cnn(C[C@H](O)CO)c4)cc23)cccc1-n1cnc2ccccc2c1=O` [K.1.1]: the pIC50 was greater than 7.00.

In the case of `C=CC(=O)N1C[C@H](CO)C[C@@H](c2ccc(C(N)=O)c3[nH]ccc23)C1` [E.9.44], the pIC50 was 6.00 to 7.00.

`C=CC(=O)N1CC(Nc2cnc(C(N)=O)c3[nH]ccc23)C1` [E.9.34]: the pIC50 is greater than 7.00.

As for `Cn1cc(-c2cc3c(N4CCC[C@@H](NC(=O)c5ccc(C(F)F)cc5)C4)ccc(C(N)=O)c3[nH]2)cn1` [O.1.22*], the pIC50 was 6.00 to 7.00.

As to `C=CC(=O)N1CCC[C@H](c2ccc(C(N)=O)c3[nH]c(-c4cnn(C)c4)cc23)C1` [Example 4.2], the pIC50 is greater than 7.00.

With `C=CC(=O)Nc1cccc(-c2ccc(C(N)=O)c3[nH]ccc23)c1F` [E.1.33], the pIC50 was greater than 7.00.

Take `CC(=O)N1CC=C(c2cc3c(-c4cccc(-n5cnc6ccccc6c5=O)c4C)ccc(C(N)=O)c3[nH]2)C1` [E.8.1]: the pIC50 was greater than 7.00.

As for `Cn1cc(-c2cc3c(N4CCC[C@@H](NC(=O)c5ccc(C(C)(C)C)cc5)C4)ccc(C(N)=O)c3[nH]2)cn1` [O.1.19*], the pIC50 was greater than 7.00.

Regarding `Cc1c(-c2ccc(C(N)=O)c3[nH]c(C4=CCN(C)CC4)cc23)cccc1-n1cnc2ccccc2c1=O` [H.1.1], the pIC50 is greater than 7.00.

Turning to `C=CC(=O)Nc1cc(OC)cc(-c2ccc(C(N)=O)c3[nH]ccc23)c1` [E.1.28], the pIC50 is 6.00 to 7.00.

With `Cn1cc(-c2cc3c(N4CCC[C@@H](NC(=O)c5ccc(OC(F)(F)F)cc5)C4)ccc(C(N)=O)c3[nH]2)cn1` [O.1.24*], the pIC50 is 6.00 to 7.00.

Turning to `C=CC(=O)Nc1cc(C)cc(-c2ccc(C(N)=O)c3[nH]ccc23)c1` [E.1.29], the pIC50 is 6.00 to 7.00.

Regarding `C=CC(=O)Nc1cccc(-c2ccc(C(N)=O)c3[nH]ccc23)c1C#N` [E.1.27], the pIC50 was 6.00 to 7.00.

For the compound `Cc1c(NC2COC2)cccc1-c1ccc(C(N)=O)c2[nH]ccc12` [O.1.2], the pIC50 was 5.00 to 6.00.

As for `C=CC(=O)Nc1ccc(F)c(-c2ccc(C(N)=O)c3[nH]ccc23)c1` [E.1.32], the pIC50 is 6.00 to 7.00.

For `CCOC(=O)N1CC=C(c2cc3c(-c4cccc(-n5cnc6ccccc6c5=O)c4C)ccc(C(N)=O)c3[nH]2)CC1` [E.6.2], the pIC50 was greater than 7.00.

Consider `C=CC(=O)N(C)c1cccc(-c2ccc(C(N)=O)c3[nH]ccc23)c1` [E.1.5], for which the pIC50 is greater than 7.00.

On to `Cc1c(NC(=O)COc2ccccc2)cccc1-c1ccc(C(N)=O)c2[nH]c(C3=CCN(S(C)(=O)=O)CC3)cc12` [D.7.21], for which the pIC50 is greater than 7.00.

On to `C=CC(=O)Nc1cc(OCc2ccccc2)cc(-c2ccc(C(N)=O)c3[nH]ccc23)c1` [E.1.14], for which the pIC50 was 5.00 to 6.00.

For `Cn1cc(-c2cc3c(N4CCC[C@@H](n5cnc6ccccc6c5=O)C4)ccc(C(N)=O)c3[nH]2)cn1` [O.1.16*], the pIC50 is 6.00 to 7.00.

As to `C=CC(=O)N1CCC[C@H](c2cnc(C(N)=O)c3[nH]ccc23)C1` [E.9.52], the pIC50 is 6.00 to 7.00.

In the case of `C=CC(=O)N[C@@H]1CC[C@@H](c2ccc(C(N)=O)c3[nH]ccc23)C1` [E.9.50], the pIC50 was greater than 7.00.

On to `C=CC(=O)N1CC(N(C)c2ccc(C(N)=O)c3[nH]c(C)cc23)C1` [E.9.25], for which the pIC50 is greater than 7.00.

On to `Cc1c(NC(=O)CC(C)C)cccc1-c1ccc(C(N)=O)c2[nH]c(C3=CCN(S(C)(=O)=O)CC3)cc12` [D.7.35], for which the pIC50 was greater than 7.00.

Turning to `C=CC(=O)Nc1ccc(F)c(-c2ccc(C(N)=O)c3[nH]ccc23)c1F` [E.1.20], the pIC50 is greater than 7.00.

Consider `C=CC(=O)N1CC(N(C)c2ccc(C(N)=O)c3[nH]c(C4=CCC(S(C)(=O)=O)CC4)cc23)C1` (stereo not drawn) [E.9.6], for which the pIC50 was greater than 7.00.

`C=CC(=O)N1CC(N(C)c2ccc(C(N)=O)c3[nH]c(C4=CCC(F)(F)CC4)cc23)C1` [E.9.5]: the pIC50 is greater than 7.00.

With `Cc1c(NC(=O)C(F)(F)Cl)cccc1-c1ccc(C(N)=O)c2[nH]c(C3=CCN(S(C)(=O)=O)CC3)cc12` [D.7.7], the pIC50 was greater than 7.00.

Take `C=CC(=O)N1C[C@@H](CO)C[C@H](c2ccc(C(N)=O)c3[nH]ccc23)C1` [E.9.46]: the pIC50 was 5.00 to 6.00.

`Cc1c(NC(=O)/C=C\Cl)cccc1-c1ccc(C(N)=O)c2[nH]c(C3=CCN(S(C)(=O)=O)CC3)cc12` [D.7.17]: the pIC50 was greater than 7.00.

`C=CC(=O)N1CC[C@@H](c2ccc(C(N)=O)c3[nH]c(C)cc23)C1` [E.9.40*]: the pIC50 is 6.00 to 7.00.

For the compound `CS(=O)(=O)N1CC=C(c2cc3c(N4CCC[C@@H](n5ccn6ccnc6c5=O)C4)ccc(C(N)=O)c3[nH]2)CC1` [O.1.4*], the pIC50 was greater than 7.00.

`Cc1c(NC(=O)C2CCCCC2)cccc1-c1ccc(C(N)=O)c2[nH]c(C3=CCN(S(C)(=O)=O)CC3)cc12` [D.7.29]: the pIC50 is greater than 7.00.

For `Cc1c(-c2ccc(C(N)=O)c3[nH]c(C4=CCNCC4)cc23)cccc1-n1cnc2ccccc2c1=O` [G.1.1, 4-(2-methyl-3-(4-oxoquinazolin-3(4H)-yl)phenyl)-2-(1,2,3,6-tetrahydropyridin-4-yl)-1H-indole-7-carboxamide], the pIC50 was greater than 7.00.

Take `C=CC(=O)N1CC(N(C)c2ccc(C(N)=O)c3[nH]c([C@H]4CCOC4)cc23)C1` [Example 5.2]: the pIC50 was greater than 7.00.

For the compound `CCOC(=O)N1CC=C(c2cc3c(-c4cccc(-n5cnc6ccccc6c5=O)c4C)ccc(C(N)=O)c3[nH]2)C1` [E.6.1], the pIC50 is greater than 7.00.

As for `C=CC(=O)Nc1cccc(-c2ccc(C(N)=O)c3[nH]c(C4=CCN(S(C)(=O)=O)CC4)cc23)c1C` [D.7.6], the pIC50 was greater than 7.00.

For the compound `Cc1c(NC(=O)/C=C/CN2CCCCC2)cccc1-c1ccc(C(N)=O)c2[nH]ccc12` [J.1.1], the pIC50 is 6.00 to 7.00.

Still in this test, the particulars now being: trFRET, 0.001 mM ATP, biotin-TYR1 peptide substrate; read-out: Btk IC50.
With `C=CC(=O)Nc1cccc(-c2ccc(C(N)=O)c3[nH]c(-c4cccnc4OC)cc23)c1C` [A.1.18], the pIC50 was greater than 7.00.

As for `C=CC(=O)Nc1cccc(-c2ccc(C(N)=O)c3[nH]c(CC)cc23)c1` [Example 20, 4-(3-Acrylamidophenyl)-2-ethyl-1H-indole-7-carboxamide], the pIC50 is greater than 7.00.

On to `C=CC(=O)Nc1cccc(-c2ccc(C(N)=O)c3[nH]c(-c4cccc(C#N)c4)cc23)c1C` [A.1.14], for which the pIC50 was greater than 7.00.

Consider `Cc1c(NC(=O)c2nccs2)cccc1-c1ccc(C(N)=O)c2[nH]c(-c3ccccc3CNC(=O)COc3ccc(F)cc3)cc12` [D.1.7], for which the pIC50 was 5.00 to 6.00.

With `C=CC(=O)Nc1ccccc1-c1ccc(C(N)=O)c2[nH]c(C3=CCN(S(C)(=O)=O)CC3)cc12` [A.4.3], the pIC50 was greater than 7.00.

As for `C=CC(=O)Nc1cccc(-c2ccc(C(N)=O)c3[nH]c(-c4ccc(N5CCOCC5)nc4)cc23)c1C` [A.1.30], the pIC50 is greater than 7.00.

For `Cc1c(NC(=O)/C=C/CN(C)C)cccc1-c1ccc(C(N)=O)c2[nH]ccc12` [J.1, (E)-4-(3-(4-(Dimethylamino)but-2-enamido)-2-methylphenyl)-1H-indole-7-carboxamide], the pIC50 is 6.00 to 7.00.

As to `Cc1c(-c2ccc(C(N)=O)c3[nH]c(C4=CCOCC4)cc23)cccc1-n1cnc2ccccc2c1=O` [A.11.1], the pIC50 is greater than 7.00.

For `C=CC(=O)NCc1ccccc1-c1cc2c(-c3cccc(NC(=O)c4nccs4)c3C)ccc(C(N)=O)c2[nH]1` [D.1.2], the pIC50 was 5.00 to 6.00.

Turning to `CC(=O)N1CC=C(c2cc3c(-c4cccc(NC(=O)c5ccc(C(F)F)cc5)c4C)ccc(C(N)=O)c3[nH]2)CC1` [A.3.7, 2-(1-acetyl-1,2,3,6-tetrahydropyridin-4-yl)-4-(3-(4-(difluoromethyl)benzamido)-2-methylphenyl)-1H-indole-7-carboxamide], the pIC50 is greater than 7.00.

For the compound `Cc1c(NC(=O)c2nccs2)cccc1-c1ccc(C(N)=O)c2[nH]c(-c3ccc(=O)n(C)c3)cc12` [A.2.1], the pIC50 is greater than 7.00.

Take `CCNC(=O)/C=C\C(=O)Nc1cccc(-c2ccc(C(N)=O)c3[nH]ccc23)c1` [D.9.2]: the pIC50 was greater than 7.00.

`C=CC(=O)Nc1cccc(-c2ccc(C(N)=O)c3[nH]c(-c4ccc(OC)nc4)cc23)c1C` [A.1.41]: the pIC50 is greater than 7.00.

For the compound `Cc1ccc(-c2cc3c(-c4cccs4)ccc(C(N)=O)c3[nH]2)cc1` [A.8.9], the pIC50 is 6.00 to 7.00.

In the case of `Cc1noc(C)c1-c1ccc(C(N)=O)c2[nH]c(-c3ccc(F)cc3)cc12` [A.9.3], the pIC50 is 6.00 to 7.00.

Turning to `Cc1c(NC(=O)CCN2CCCC2)cccc1-c1ccc(C(N)=O)c2[nH]ccc12` [D.8.14], the pIC50 was 5.00 to 6.00.

Consider `Cc1ccc(-c2cc3c(-c4c(C)noc4C)ccc(C(N)=O)c3[nH]2)cc1` [A.8.2], for which the pIC50 was 6.00 to 7.00.

As to `NC(=O)c1ccc(-c2ccccc2N)c2cc[nH]c12` [A.5.1, 4-(2-aminophenyl)-1H-indole-7-carboxamide], the pIC50 was 5.00 to 6.00.

`Cn1cc(-c2cc3c(-c4cccc(-n5ccc6cc(C7CC7)cc(F)c6c5=O)c4CO)ccc(C(N)=O)c3[nH]2)cn1` [A.15.1]: the negative logarithm of the IC50 (pIC50) is greater than 7.00.

With `C=CC(=O)Nc1cccc(-c2ccc(C(N)=O)c3[nH]c(-c4ccc(C(=O)OC)cc4)cc23)c1C` [A.1.20], the pIC50 was greater than 7.00.

With `Cc1c(NC(=O)c2ccc(C(C)(C)C)cc2)cccc1-c1ccc(C(N)=O)c2[nH]ccc12` [A.5.6], the pIC50 is 5.00 to 6.00.

For `C=CC(=O)Nc1cccc(-c2ccc(C(N)=O)c3[nH]c(-c4cccnc4)cc23)c1C` [A.1.36], the pIC50 was greater than 7.00.

With `Cc1ccc(-c2cc3c(-c4ccsc4)ccc(C(N)=O)c3[nH]2)cc1` [A.8.10], the pIC50 was 6.00 to 7.00.

For `C=CC(=O)N1CC(N(C)c2ccc(C(N)=O)c3[nH]ccc23)C1` [Example 24, 4-((1-Acryloylazetidin-3-yl)(methyl)amino)-1H-indole-7-carboxamide], the pIC50 was greater than 7.00.

`C=CC(=O)Nc1cccc(-c2ccc(C(N)=O)c3[nH]c(-c4ccnn4C4CCCCO4)cc23)c1C` (stereo not drawn) [A.1.2]: the pIC50 is greater than 7.00.

With `Cc1c(NC(=O)c2nccs2)cccc1-c1ccc(C(N)=O)c2[nH]c(-c3cnn(C)c3)cc12` [A.2.2], the pIC50 is greater than 7.00.

As to `Cc1c(N)cccc1-c1cnc(C(N)=O)c2[nH]ccc12` [Example 2, 4-(3-Amino-2-methylphenyl)-1H-pyrrolo[2,3-c]pyridine-7-carboxamide], the pIC50 was 5.00 to 6.00.

Values taken from patent publication US9567339B2, “Primary carboxamides as BTK inhibitors” (AbbVie Inc., priority 2013, dated 2017).
